Measurements taken from patent publication US9459254B2, “Method for determining sensitivity to an anticancer agent” (KEIO UNIVERSITY, priority 2009, dated 2016).

Columns and labels:
[1] = tested on: DLD-1 cells; assay: SELDI-TOF MS intracellular protein expression after drug exposure, DLD-1; type: cell-based, human
Description: (§1) The 5-FU+SN-38 combination concentration was adjusted to the following four levels: 2 μM+10 nM, 2 μM+100 nM, 100 μM+10 nM, and 100 μM+100 nM, the 5-FU concentration (exposure to single agent) was adjusted to 2 μM and 100 μM, and the SN-38 concentration (exposure to single agent) was adjusted to 10 nM and 100 nM. In addition, the exposure test was conducted at a drug-free concentration (control). That is, nine concentrations in total were employed. Drug exposure time was adjusted to the following four periods of time: 0 hour (just before exposure), 4 hours, 24 hours, and 48 hours. After completion of exposure, cell count was performed, and intracellular proteins were extracted.
(§2) The medium was removed from the dish and washed thrice with ice-cooled PBS. The cells on the dish was collected by scraping with a rubber policeman. The thus-obtained cell suspension was transferred to a 1.5-mL microtube. The cell suspension was centrifuged at 4° C. and 1,200×g for 10 minutes, and the cells were recovered. After removal of the supernatant, a cell lysis buffer (9 mol/L urea, 2% CHAPS, 1 mM DTT, protease-inhibitor cocktail (Sigma)) was added in a volume of 200 μL with respect to 10,000,000 cells. The liquid was subjected to untrasonic treatment under cooling with ice. The thus-treated product was centrifuged at 4° C. and 16,000×g for 20 minutes, and the supernatant was quickly frozen with liquid nitrogen. The frozen product was stored at −80° C. before analysis. An aliquot of the supernatant was subjected to protein quantification (DC Protein Assay Kit, Bio-Rad).
(§3) The protein sample was mixed with a cell lysis buffer (excluding protease inhibitor), to thereby adjust the protein concentration to 2.5 mg/mL. The liquid was further mixed with a dilution/washing buffer (pH: 4.5, 50 mM sodium acetate buffer) (hereinafter referred to simply as “buffer”), to a protein concentration of 0.5 mg/mL. The thus-prepared sample (100 μL) was applied to spots of a cation-exchange ProteinChip array (CM10, Bio-Rad) which had been conditioned in advance with the same buffer. […]

[2] = tested on: HCT116 cells; assay: MTS assay cell viability after drug exposure, HCT116
Description: (§4) Two colorectal cancer lines (HCT116 and DLD-1, obtained from ECACC) were exposed to a drug, and 48 hours and 72 hours after drug exposure, cell viability was determined by means of an MTS assay (CellTiter96™ AQueous One Solution Cell Proliferation Assay, Promega). Drug exposure conditions were as follows. 5-FU (single agent) was used at the following 11 concentrations: control (0 μM), 0.001 μM, 0.01 μM, 0.1 μM, 1 μM, 3 μM, 10 μM, 30 μM, 100 μM, 1,000 μM, and 10,000 μM. SN-38 (single agent) was used at the following 11 concentrations; control (0 nM), 0.001 nM, 0.01 nM, 0.1 nM, 0.3 nM, 1 nM, 3 nM, 10 nM, 30 nM, 100 nM, and 1,000 nM. In the case of 5-FU/SN-38 combination, 5-FU was used at 2 μM, 10 μM, 30 μM, and 100 μM (4 concentrations), and SN-38 was used at 0.001 nM, 0.01 nM, 0.1 nM, 0.3 nM, 1 nM, 3 nM, 10 nM, 30 nM, 100 nM, and 1,000 nM (10 concentrations); i.e., 40 concentrations were employed. […]
(§5) Sensitivity analysis was performed from viability data calculated from MTS assay results. The presence or absence of combined effect was determined through comparison of viability obtained by exposure to a combination with that obtained by exposure to a single agent at the same concentration as employed at the exposure to the combination.

[3] = tested on: DLD-1 cells; assay: MTS assay cell viability after drug exposure, DLD-1
Description: as §4, §5

[4] = tested on: HCT116 cells; assay: SELDI-TOF MS intracellular protein expression after drug exposure, HCT116; type: cell-based, human
Description: as §1, §2, §3

[5] = compared with CPT-11; cited from earlier work

CCc1c2c(nc3ccc(O)cc13)-c1cc3c(c(=O)n1C2)COC(=O)[C@]3(O)CC [SN-38, 7-ethyl-10-hydroxycamptothecin]
intracellular protein A level after drug exposure [1]: no significant difference | intracellular protein B level after drug exposure [1]: no significant difference | cell viability ([2]; HCT116, 100 nM SN-38, 72 hours): about 24% | cell viability ([3]; DLD-1, 100 nM SN-38, 72 hours): about 76% | intracellular protein A level (m/z 16,450 to 16,620) after drug exposure [4]: protein level increase | intracellular protein B level (m/z 22,080 to 22,310) after drug exposure [4]: protein level increase | anti-tumor activity relative to that of CPT-11 [5]: about 100 times to some thousand times

O=c1[nH]cc(F)c(=O)[nH]1 [5-FU, Fluorouracil]
intracellular protein A level after drug exposure [1]: no significant difference | cell viability ([2]; HCT116, 100 μM 5-FU, 48 hours): about 24% | cell viability ([3]; DLD-1, 100 μM 5-FU, 48 hours): about 49% | intracellular protein A level (m/z 16,450 to 16,620) after drug exposure [4]: protein level increase
